# Results taken from US6358885B1, “Substituted phenylheterocyclic herbicides” (Mississippi State University, priority 1992, dated 2002).
# Legend:
# Assay in all cases: Test B preemergence/postemergence greenhouse plant response rating 0 to 10
# [1] = system: velvetleaf; type: in vivo, Abutilon theophrasti; settings: for Plant response rating, Velvetleaf: 0 to 10 scale
# How it was run: (§1)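 Postemergence treatment of plants two to eighteen cm tall ran alongside preemergence treatment of planted seed, each using compound in a non-phytotoxic solvent.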
# [2] = system: rice; type: in vivo, Oryza sativa; settings: for Plant response rating, Rice: 0 to 10 scale
# How it was run: as §1
# [3] = system: cheatgrass; type: in vivo, Bromus secalinus; settings: for Plant response rating, Cheatgrass: 0 to 10 scale
# How it was run: as §1
# [4] = system: soybean; type: in vivo, Glycine max; settings: for Plant response rating, Soybean: 0 to 10 scale
# How it was run: as §1
# [5] = system: chickweed; type: in vivo, Stellaria media; settings: for Plant response rating, Chickweed: 0 to 10 scale
# How it was run: as §1
# [6] = system: cotton; type: in vivo, Gossypium hirsutum; settings: for Plant response rating, Cotton: 0 to 10 scale
# How it was run: as §1
# [7] = system: purple nutsedge; type: in vivo, Cyperus rotundus; settings: for Plant response rating, Nutsedge: 0 to 10 scale
# How it was run: as §1
# [8] = system: sorghum; type: in vivo, Sorghum bicolor; settings: for Plant response rating, Sorghum: 0 to 10 scale
# How it was run: as §1
# [9] = system: morningglory; type: in vivo, Ipomoea hederacea; settings: for Plant response rating, Morningglory: 0 to 10 scale
# How it was run: as §1
# [10] = system: bedstraw; type: in vivo, Galium aparine; settings: for Plant response rating, Bedstraw: 0 to 10 scale
# How it was run: as §1
# [11] = system: wild buckwheat; type: in vivo, Polygonum convolvulus; settings: for Plant response rating, Wild buckwheat: 0 to 10 scale
# How it was run: as §1
# [12] = system: wheat; type: in vivo, Triticum aestivum; settings: for Plant response rating, Wheat: 0 to 10 scale
# How it was run: as §1
# [13] = system: wild oat; type: in vivo, Avena fatua; settings: for Plant response rating, Wild oat: 0 to 10 scale
# How it was run: as §1
# [14] = system: cocklebur; type: in vivo, Xanthium pensylvanicum; settings: for Plant response rating, Cocklebur: 0 to 10 scale
# How it was run: as §1
# [15] = system: lambsquarters; type: in vivo, Chenopodium album; settings: for Plant response rating, Lambsquarter: 0 to 10 scale
# How it was run: as §1
# [16] = system: corn; type: in vivo, Zea mays; settings: for Plant response rating, Corn: 0 to 10 scale
# How it was run: as §1
# [17] = system: blackgrass; type: in vivo, Alopecurus myosuroides; settings: for Plant response rating, Blackgrass: 0 to 10 scale
# How it was run: as §1
# [18] = system: barley; type: in vivo, Hordeum vulgare; settings: for Plant response rating, Barley: 0 to 10 scale
# How it was run: as §1
# [19] = system: barnyardgrass; type: in vivo, Echinochloa crus-galli; settings: for Plant response rating, Barnyardgrass: 0 to 10 scale
# How it was run: as §1
# [20] = system: rape; type: in vivo, Brassica napus; settings: for Plant response rating, Rape: 0 to 10 scale
# How it was run: as §1
# [21] = system: sugar beet; type: in vivo, Beta vulgaris; settings: for Plant response rating, Sugar beet: 0 to 10 scale
# How it was run: as §1
# [22] = system: giant foxtail; type: in vivo, Setaria faberii; settings: for Plant response rating, Giant foxtail: 0 to 10 scale
# How it was run: as §1
# [23] = system: crabgrass; type: in vivo, Digitaria spp.; settings: for Plant response rating, Crabgrass: 0 to 10 scale
# How it was run: as §1
compound,measurement,setting,value
C=CCOc1cc(-c2nn3c(c2Cl)CCCC3)c(Cl)cc1Cl [Compound 71],"Plant response rating, Velvetleaf","[1]; POSTEMERGENCE, Rate 50 g/ha",10
same,"Plant response rating, Velvetleaf","[1]; PREEMERGENCE, Rate 50 g/ha",0
same,"Plant response rating (0 to 10 scale), Velvetleaf","[1]; PREEMERGENCE, Rate 200 g/ha",10
same,"Plant response rating, Velvetleaf","[1]; Rate 200 g/ha, POSTEMERGENCE",10
same,"Plant response rating, Rice","[2]; POSTEMERGENCE, Rate 50 g/ha",4
same,"Plant response rating, Rice","[2]; PREEMERGENCE, Rate 50 g/ha",0
same,"Plant response rating (0 to 10 scale), Rice","[2]; PREEMERGENCE, Rate 200 g/ha",0
same,"Plant response rating, Rice","[2]; Rate 200 g/ha, POSTEMERGENCE",5
same,"Plant response rating, Cheatgrass","[3]; POSTEMERGENCE, Rate 50 g/ha",4
same,"Plant response rating, Cheatgrass","[3]; PREEMERGENCE, Rate 50 g/ha",0
same,"Plant response rating (0 to 10 scale), Cheatgrass","[3]; PREEMERGENCE, Rate 200 g/ha",2
same,"Plant response rating, Cheatgrass","[3]; Rate 200 g/ha, POSTEMERGENCE",6
same,"Plant response rating, Soybean","[4]; POSTEMERGENCE, Rate 50 g/ha",6
same,"Plant response rating, Soybean","[4]; PREEMERGENCE, Rate 50 g/ha",0
same,"Plant response rating (0 to 10 scale), Soybean","[4]; PREEMERGENCE, Rate 200 g/ha",0
same,"Plant response rating, Soybean","[4]; Rate 200 g/ha, POSTEMERGENCE",7
same,"Plant response rating, Chickweed","[5]; POSTEMERGENCE, Rate 50 g/ha",2
same,"Plant response rating, Chickweed","[5]; PREEMERGENCE, Rate 50 g/ha",0
same,"Plant response rating (0 to 10 scale), Chickweed","[5]; PREEMERGENCE, Rate 200 g/ha",0
same,"Plant response rating, Chickweed","[5]; Rate 200 g/ha, POSTEMERGENCE",3
same,"Plant response rating, Cotton","[6]; POSTEMERGENCE, Rate 50 g/ha",10
same,"Plant response rating, Cotton","[6]; PREEMERGENCE, Rate 50 g/ha",0
same,"Plant response rating (0 to 10 scale), Cotton","[6]; PREEMERGENCE, Rate 200 g/ha",0
same,"Plant response rating, Cotton","[6]; Rate 200 g/ha, POSTEMERGENCE",10
same,"Plant response rating, Nutsedge","[7]; POSTEMERGENCE, Rate 50 g/ha",2
same,"Plant response rating, Nutsedge","[7]; PREEMERGENCE, Rate 50 g/ha",0
same,"Plant response rating (0 to 10 scale), Nutsedge","[7]; PREEMERGENCE, Rate 200 g/ha",5
same,"Plant response rating, Nutsedge","[7]; Rate 200 g/ha, POSTEMERGENCE",2
same,"Plant response rating, Sorghum","[8]; POSTEMERGENCE, Rate 50 g/ha",6
same,"Plant response rating, Sorghum","[8]; PREEMERGENCE, Rate 50 g/ha",0
same,"Plant response rating (0 to 10 scale), Sorghum","[8]; PREEMERGENCE, Rate 200 g/ha",0
same,"Plant response rating, Sorghum","[8]; Rate 200 g/ha, POSTEMERGENCE",6
same,"Plant response rating, Morningglory","[9]; POSTEMERGENCE, Rate 50 g/ha",10
same,"Plant response rating, Morningglory","[9]; PREEMERGENCE, Rate 50 g/ha",0
same,"Plant response rating (0 to 10 scale), Morningglory","[9]; PREEMERGENCE, Rate 200 g/ha",0
same,"Plant response rating, Morningglory","[9]; Rate 200 g/ha, POSTEMERGENCE",10
same,"Plant response rating, Bedstraw","[10]; POSTEMERGENCE, Rate 50 g/ha",8
same,"Plant response rating, Bedstraw","[10]; PREEMERGENCE, Rate 50 g/ha",2
same,"Plant response rating (0 to 10 scale), Bedstraw","[10]; PREEMERGENCE, Rate 200 g/ha",6
same,"Plant response rating, Bedstraw","[10]; Rate 200 g/ha, POSTEMERGENCE",9
same,"Plant response rating, Wild buckwheat","[11]; POSTEMERGENCE, Rate 50 g/ha",10
same,"Plant response rating, Wild buckwheat","[11]; PREEMERGENCE, Rate 50 g/ha",0
same,"Plant response rating (0 to 10 scale), Wild buckwheat","[11]; PREEMERGENCE, Rate 200 g/ha",10
same,"Plant response rating, Wild buckwheat","[11]; Rate 200 g/ha, POSTEMERGENCE",10
same,"Plant response rating, Wheat","[12]; POSTEMERGENCE, Rate 50 g/ha",4
same,"Plant response rating, Wheat","[12]; PREEMERGENCE, Rate 50 g/ha",0
same,"Plant response rating (0 to 10 scale), Wheat","[12]; PREEMERGENCE, Rate 200 g/ha",2
same,"Plant response rating, Wheat","[12]; Rate 200 g/ha, POSTEMERGENCE",6
same,"Plant response rating, Wild oat","[13]; POSTEMERGENCE, Rate 50 g/ha",3
same,"Plant response rating, Wild oat","[13]; PREEMERGENCE, Rate 50 g/ha",2
same,"Plant response rating (0 to 10 scale), Wild oat","[13]; PREEMERGENCE, Rate 200 g/ha",2
same,"Plant response rating, Wild oat","[13]; Rate 200 g/ha, POSTEMERGENCE",5
same,"Plant response rating, Cocklebur","[14]; POSTEMERGENCE, Rate 50 g/ha",7
same,"Plant response rating, Cocklebur","[14]; PREEMERGENCE, Rate 50 g/ha",0
same,"Plant response rating (0 to 10 scale), Cocklebur","[14]; PREEMERGENCE, Rate 200 g/ha",0
same,"Plant response rating, Cocklebur","[14]; Rate 200 g/ha, POSTEMERGENCE",8
same,"Plant response rating, Lambsquarter","[15]; POSTEMERGENCE, Rate 50 g/ha",10
same,"Plant response rating, Lambsquarter","[15]; PREEMERGENCE, Rate 50 g/ha",10
same,"Plant response rating (0 to 10 scale), Lambsquarter","[15]; PREEMERGENCE, Rate 200 g/ha",10
same,"Plant response rating, Lambsquarter","[15]; Rate 200 g/ha, POSTEMERGENCE",10
same,"Plant response rating, Corn","[16]; POSTEMERGENCE, Rate 50 g/ha",3
same,"Plant response rating, Corn","[16]; PREEMERGENCE, Rate 50 g/ha",0
same,"Plant response rating (0 to 10 scale), Corn","[16]; PREEMERGENCE, Rate 200 g/ha",2
same,"Plant response rating, Corn","[16]; Rate 200 g/ha, POSTEMERGENCE",3
same,"Plant response rating, Blackgrass","[17]; POSTEMERGENCE, Rate 50 g/ha",4
same,"Plant response rating, Blackgrass","[17]; PREEMERGENCE, Rate 50 g/ha",0
same,"Plant response rating (0 to 10 scale), Blackgrass","[17]; PREEMERGENCE, Rate 200 g/ha",0
same,"Plant response rating, Blackgrass","[17]; Rate 200 g/ha, POSTEMERGENCE",6
same,"Plant response rating, Barley","[18]; POSTEMERGENCE, Rate 50 g/ha",3
same,"Plant response rating, Barley","[18]; PREEMERGENCE, Rate 50 g/ha",0
same,"Plant response rating (0 to 10 scale), Barley","[18]; PREEMERGENCE, Rate 200 g/ha",0
same,"Plant response rating, Barley","[18]; Rate 200 g/ha, POSTEMERGENCE",4
same,"Plant response rating, Barnyardgrass","[19]; POSTEMERGENCE, Rate 50 g/ha",6
same,"Plant response rating, Barnyardgrass","[19]; PREEMERGENCE, Rate 50 g/ha",0
same,"Plant response rating (0 to 10 scale), Barnyardgrass","[19]; PREEMERGENCE, Rate 200 g/ha",5
same,"Plant response rating, Barnyardgrass","[19]; Rate 200 g/ha, POSTEMERGENCE",8
same,"Plant response rating, Rape","[20]; POSTEMERGENCE, Rate 50 g/ha",8
same,"Plant response rating, Rape","[20]; PREEMERGENCE, Rate 50 g/ha",0
same,"Plant response rating (0 to 10 scale), Rape","[20]; PREEMERGENCE, Rate 200 g/ha",3
same,"Plant response rating, Rape","[20]; Rate 200 g/ha, POSTEMERGENCE",10
same,"Plant response rating, Sugar beet","[21]; POSTEMERGENCE, Rate 50 g/ha",10
same,"Plant response rating, Sugar beet","[21]; PREEMERGENCE, Rate 50 g/ha",5
same,"Plant response rating (0 to 10 scale), Sugar beet","[21]; PREEMERGENCE, Rate 200 g/ha",10
same,"Plant response rating, Sugar beet","[21]; Rate 200 g/ha, POSTEMERGENCE",10
same,"Plant response rating, Giant foxtail","[22]; POSTEMERGENCE, Rate 50 g/ha",5
same,"Plant response rating, Giant foxtail","[22]; PREEMERGENCE, Rate 50 g/ha",0
same,"Plant response rating (0 to 10 scale), Giant foxtail","[22]; PREEMERGENCE, Rate 200 g/ha",8
same,"Plant response rating, Giant foxtail","[22]; Rate 200 g/ha, POSTEMERGENCE",6
same,"Plant response rating, Crabgrass","[23]; POSTEMERGENCE, Rate 50 g/ha",3
same,"Plant response rating, Crabgrass","[23]; PREEMERGENCE, Rate 50 g/ha",0
same,"Plant response rating (0 to 10 scale), Crabgrass","[23]; PREEMERGENCE, Rate 200 g/ha",5
same,"Plant response rating, Crabgrass","[23]; Rate 200 g/ha, POSTEMERGENCE",3
